Molecules are shown by their SMILES.

For this assay, the target named is Kv7.2/7.3 (Homo sapiens, UniProt O43525+O43526). Kind of assay: Kv7.2/7.3 Activation Assay, QPatch single concentration screen. Type of assay: cell-based. The note with it: Kv7.2/Kv7.3 co-expressing HEK cells, compound concentration 3 μM, steady-state current at end of 2 s pulse to −30 mV. More on the design: host or cells: HEK cells, tetracycline-inducible expression; key: 1.2-2.9 (+); 3-3.9 (++); >4 (+++) fold increase over baseline; O represents open channel at holding potential. In a few lines: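 Tetracycline-induced HEK cells expressing human Kv7.2/7.3, recorded 24 h post-induction by automated planar patch clamp. From −80 mV, 2 s steps to −30 mV then 100 ms to −120 mV; compound tested at 3 μM (0.1% DMSO). Steady-state current at end of −30 mV step gives fold increase over baseline.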
Turning to `COc1cc(F)c2nc(NC(=O)CC(C)(C)C)n(C3(C)CCC3)c2c1` [Example 355, N-(4-fluoro-6-methoxy-1-(1-methylcyclobutyl)-1H-benzo[d]imidazol-2-yl)-3,3-dimethylbutanamide], the “Kv7.2/7.3 Activity: increase over baseline in current” value (“Kv7.2/7.3 Activity: increase” for short) is listed as “+++ (>4 (+++) fold increase over baseline)”. In the case of `CC(C)(C)CC(=O)Nc1nc2cc(F)c(C#N)c(F)c2n1C1CCC1` [Example 356, N-(6-cyano-1-cyclobutyl-5,7-difluoro-1H-benzo[d]imidazol-2-yl)-3,3-dimethylbutanamide] it was “+ (1.2-2.9 (+))”; in that of `CC(C)(C)CC(=O)Nc1nc2cc(F)cc(F)c2n1C1CCC1` [Example 357, N-(1-cyclobutyl-5,7-difluoro-1H-benzo[d]imidazol-2-yl)-3,3-dimethylbutanamide], “+++ (>4 (+++) fold increase over baseline)”. The result for `CC(C)(CC(=O)Nc1nc2c(F)cc(O)cc2n1C1CCC1)C(F)(F)F` [Example 359, N-(1-cyclobutyl-4-fluoro-6-hydroxy-1H-benzo[d]imidazol-2-yl)-4,4,4-trifluoro-3,3-dimethylbutanamide] reads “++ (3-3.9 (++))”.

As to `CC1(n2c(NC(=O)CC(C)(C)C(F)(F)F)nc3ccc(C#N)cc32)CCC1` [Example 361, N-(6-cyano-1-(1-methylcyclobutyl)-1H-benzo[d]imidazol-2-yl)-4,4,4-trifluoro-3,3-dimethylbutanamide], the “Kv7.2/7.3 Activity: increase” value is “++ (3-3.9 (++))”.

Regarding `CC(C)(C)CC(=O)Nc1nc2cc(F)c(C(C)(C)O)c(F)c2n1C1CCC1` [Example 362, N-(1-cyclobutyl-5,7-difluoro-6-(2-hydroxypropan-2-yl)-1H-benzo[d]imidazol-2-yl)-3,3-dimethylbutanamide], the “Kv7.2/7.3 Activity: increase” value is “++ (3-3.9 (++))”. The result for `CC(C)(CC(=O)Nc1nc2cc(F)c(OC(F)F)cc2n1C1CCC1)C1CC1` [Example 363, N-(1-cyclobutyl-6-(difluoromethoxy)-5-fluoro-1H-benzo[d]imidazol-2-yl)-3-cyclopropyl-3-methylbutanamide] reads “+ (1.2-2.9 (+))”; that for `CC(C)(CC(=O)Nc1nc2c(F)cc(C#N)cc2n1C(C)(C)C)C(F)F` [Example 364, N-(1-(tert-butyl)-6-cyano-4-fluoro-1H-benzo[d]imidazol-2-yl)-4,4-difluoro-3,3-dimethylbutanamide], “++ (3-3.9 (++))”.

For `C[C@H](C(=O)Nc1nc2ccc(C(C)(C)O)cc2n1C1CC(F)(F)C1)C(C)(C)C` [Example 365, (S)-N-(1-(3,3-difluorocyclobutyl)-6-(2-hydroxypropan-2-yl)-1H-benzo[d]imidazol-2-yl)-2,3,3-trimethylbutanamide], the “Kv7.2/7.3 Activity: increase” value is “+ (1.2-2.9 (+))”. In the case of `CC1(n2c(NC(=O)CC(C)(C)C(F)(F)F)nc3ccc(OC(F)F)cc32)CCC1` [Example 366, N-(6-(difluoromethoxy)-1-(1-methylcyclobutyl)-1H-benzo[d]imidazol-2-yl)-4,4,4-trifluoro-3,3-dimethylbutanamide] it was “+ (1.2-2.9 (+))”; in that of `CC(C)(CC(=O)Nc1nc2cc(F)c(OC(F)F)cc2n1C1(C)CCC1)C1CC1` [Example 367, 3-cyclopropyl-N-(6-(difluoromethoxy)-5-fluoro-1-(1-methylcyclobutyl)-1H-benzo[d]imidazol-2-yl)-3-methylbutanamide], “++ (3-3.9 (++))”; in that of `CC(C)(CC(=O)Nc1nc2cc(F)c(OC(F)F)cc2n1C(C)(C)C)C1CC1` [Example 368, N-(1-(tert-butyl)-6-(difluoromethoxy)-5-fluoro-1H-benzo[d]imidazol-2-yl)-3-cyclopropyl-3-methylbutanamide], “+ (1.2-2.9 (+))”.

Take `C[C@@H](CC(=O)Nc1nc2ccc(C(C)(C)O)cc2n1C1CCC1)c1ccccc1` [Example 369, (S)-N-(1-cyclobutyl-6-(2-hydroxypropan-2-yl)-1H-benzo[d]imidazol-2-yl)-3-phenylbutanamide]: the “Kv7.2/7.3 Activity: increase” value was “O”.

Consider `CC(CF)(CF)CC(=O)Nc1nc2ccc(C(C)(C)O)cc2n1C1CCC1` [Example 370, N-(1-cyclobutyl-6-(2-hydroxypropan-2-yl)-1H-benzo[d]imidazol-2-yl)-4-fluoro-3-(fluoromethyl)-3-methylbutanamide], for which the “Kv7.2/7.3 Activity: increase” value is reported as “++ (3-3.9 (++))”. Take `CC1(C)C[C@@H]1C(=O)Nc1nc2c(F)cc(C#N)cc2n1C(C)(C)C` [Example 372, (S)-N-(1-(tert-butyl)-6-cyano-4-fluoro-1H-benzo[d]imidazol-2-yl)-2,2-dimethylcyclopropane-1-carboxamide]: the “Kv7.2/7.3 Activity: increase” value was “++ (3-3.9 (++))”. In the case of `CC(C)(C)CC(=O)Nc1nc2c(Cl)cc(C#N)cc2n1C1CCC1` [Example 377, N-(4-chloro-6-cyano-1-cyclobutyl-1H-benzo[d]imidazol-2-yl)-3,3-dimethylbutanamide] it was “+++ (>4 (+++) fold increase over baseline)”. On to `CC(C)(C)n1c(NC(=O)CC(C)(C)C(F)(F)F)nc2c(F)cc(C#N)cc21` [Example 378, N-(1-(tert-butyl)-6-cyano-4-fluoro-1H-benzo[d]imidazol-2-yl)-4,4,4-trifluoro-3,3-dimethylbutanamide], for which the “Kv7.2/7.3 Activity: increase” value is recorded as “+++ (>4 (+++) fold increase over baseline)”. In the case of `CC(C)(CC(=O)Nc1nc2ccc(C#N)cc2n1C1(C)CCC1)C1CC1` [Example 379, N-(6-cyano-1-(1-methylcyclobutyl)-1H-benzo[d]imidazol-2-yl)-3-cyclopropyl-3-methylbutanamide] it was “++ (3-3.9 (++))”; in that of `CC(C)(O)CC(=O)Nc1nc2cccc(OC(F)(F)F)c2n1C1CCC1` [Example 380, N-(1-cyclobutyl-7-(trifluoromethoxy)-1H-benzo[d]imidazol-2-yl)-3-hydroxy-3-methylbutanamide], “+ (1.2-2.9 (+))”. For the compound `CC(C)(C)CC(=O)Nc1nc2c(OC(F)F)cc(C#N)cc2n1C1(C)CCC1` [Example 381, N-(6-cyano-4-(difluoromethoxy)-1-(1-methylcyclobutyl)-1H-benzo[d]imidazol-2-yl)-3,3-dimethylbutanamide], the “Kv7.2/7.3 Activity: increase” value is “++ (3-3.9 (++))”. The result for `COc1cc(Br)cc2c1nc(NC(=O)CC(C)(C)C)n2C1CCC1` [Example 382, N-(6-bromo-1-cyclobutyl-4-methoxy-1H-benzo[d]imidazol-2-yl)-3,3-dimethylbutanamide] reads “+++ (>4 (+++) fold increase over baseline)”; that for `C[C@H](C(=O)Nc1nc2ccc(C(C)(C)O)cc2n1C1(C)CCC1)C(C)(C)C` [Example 383, (S)-N-(6-(2-hydroxypropan-2-yl)-1-(1-methylcyclobutyl)-1H-benzo[d]imidazol-2-yl)-2,3,3-trimethylbutanamide], “++ (3-3.9 (++))”; that for `CC(C)(O)c1cc(F)c2nc(NC(=O)CC(C)(C)C(F)(F)F)n(C3CCC3)c2c1F` [Example 385, N-(1-cyclobutyl-4,7-difluoro-6-(2-hydroxypropan-2-yl)-1H-benzo[d]imidazol-2-yl)-4,4,4-trifluoro-3,3-dimethylbutanamide], “O”. `CC(C)(O)c1ccc2nc(NC(=O)CC(C)(C)C(F)F)n(C3CCC3)c2c1` [Example 386, N-(1-cyclobutyl-6-(2-hydroxypropan-2-yl)-1H-benzo[d]imidazol-2-yl)-4,4-difluoro-3,3-dimethylbutanamide]: the “Kv7.2/7.3 Activity: increase” value is recorded as “+ (1.2-2.9 (+))”. In the case of `CC(C)(C)CC(=O)Nc1nc2ccc(C#N)c(F)c2n1C(C)(C)C` [Example 387, N-(1-(tert-butyl)-6-cyano-7-fluoro-1H-benzo[d]imidazol-2-yl)-3,3-dimethylbutanamide] it was “++ (3-3.9 (++))”.

As to `CC(C)(C)CC(=O)Nc1nc2c(F)cc(OCc3ccccc3)cc2n1C1CCC1` [Example 388, N-(6-(benzyloxy)-1-cyclobutyl-4-fluoro-1H-benzo[d]imidazol-2-yl)-3,3-dimethylbutanamide], the “Kv7.2/7.3 Activity: increase” value was “+++ (>4 (+++) fold increase over baseline)”.

`CC(C)(C)CC(=O)Nc1nc2ccc(OC(F)F)cc2n1C1CCC1` [Example 389, N-(1-cyclobutyl-6-(difluoromethoxy)-1H-benzo[d]imidazol-2-yl)-3,3-dimethylbutanamide]: the “Kv7.2/7.3 Activity: increase” value was “++ (3-3.9 (++))”. In the case of `CC(C)(CC(=O)Nc1nc2c(F)cc(OC(F)F)cc2n1C1CCC1)C1CC1` [Example 390, N-(1-cyclobutyl-6-(difluoromethoxy)-4-fluoro-1H-benzo[d]imidazol-2-yl)-3-cyclopropyl-3-methylbutanamide] it was “+ (1.2-2.9 (+))”; in that of `CC1(CC(=O)Nc2nc3ccc(C(C)(C)O)cc3n2C2(C)CCC2)CC1` [Example 391, N-(6-(2-hydroxypropan-2-yl)-1-(1-methylcyclobutyl)-1H-benzo[d]imidazol-2-yl)-2-(1-methylcyclopropyl)acetamide], “+ (1.2-2.9 (+))”. The result for `COc1cc(Br)cc2c1nc(NC(=O)CC(C)(C)C)n2C1(C)CCC1` [Example 392, N-(6-bromo-4-methoxy-1-(1-methylcyclobutyl)-1H-benzo[d]imidazol-2-yl)-3,3-dimethylbutanamide] reads “+++ (>4 (+++) fold increase over baseline)”.

The values are drawn from patent publication US10851067B2, “Kv7 channel activators compositions and methods of use” (Knopp Biosciences LLC, priority 2018, dated 2020).
